Data: patent publication US20130189764A1, “SELECTIVE GROWTH MEDIA” (Oxide Limited, priority 2000, published 2013)
Converted amounts (≈) assume the structure as drawn.

Key:
Burkholderia cepacia = experiment: MIC on DMSal agar (Example 15); format: cell-based; details: 1 strain
Acinetobacter baumanii = experiment: MIC on DMSal agar (Example 15); format: cell-based; details: 1 strain
Protocol: (§1) The experiments were conducted as follows: […], on cooling (but prior to setting) filter-sterilised alaphosphin or AEP were incorporated at final concentrations of 1 mM, 2 mM, 5 mM and 10 mM, and the medium used to pour plates. Control plates were prepared using nutrient agar without alaphosphin or AEP. A single colony of the organism under test was inoculated in 10 ml of nutrient broth and incubated (without agitation) at 37° C. for 4 hours.

Aeromonas hydrophilia = experiment: MIC on DMSal agar (Example 15); format: cell-based; details: 1 strain
Protocol: as §1

Campylobacter coli = experiment: MIC on DMSal agar (Example 15); format: cell-based; details: 4 strains
Protocol: as §1

Campylobacter jejuni = experiment: MIC on DMSal agar (Example 15); format: cell-based; details: 4 strains
Protocol: as §1

Citrobacter freundii = experiment: MIC on DMSal agar (Example 15); format: cell-based; details: 4 strains
Protocol: as §1

Cronobacter sakazakii = experiment: MIC on DMSal agar (Example 15); format: cell-based; details: 1 strain
Protocol: as §1

Enterobacter aerogenes = experiment: MIC on DMSal agar (Example 15); format: cell-based; details: 1 strain
Protocol: as §1

Enterobacter cloacae = experiment: MIC on DMSal agar (Example 15); format: cell-based; details: 2 strains
Protocol: as §1

Enterococcus faecium = experiment: MIC on DMSal agar (Example 15); format: cell-based; details: 1 strain
Protocol: as §1

Escherichia coli = experiment: MIC on DMSal agar (Example 15); format: cell-based; details: 7 strains
Protocol: as §1

Escherichia hermanii = experiment: MIC on DMSal agar (Example 15); format: cell-based; details: 1 strain
Protocol: as §1

Group A Streptococcus = experiment: MIC on DMSal agar (Example 15); format: cell-based; details: 7 strains
Protocol: as §1

Group D Streptococcus = experiment: MIC on DMSal agar (Example 15); format: cell-based; details: 2 strains
Protocol: as §1

Group F Streptococcus = experiment: MIC on DMSal agar (Example 15); format: cell-based; details: 2 strains
Protocol: as §1

Hafnia alvei = experiment: MIC on DMSal agar (Example 15); format: cell-based; details: 1 strain
Protocol: as §1

Klebsiella aerogenes = experiment: MIC on DMSal agar (Example 15); format: cell-based; details: 1 strain
Protocol: as §1

Klebsiella pneumoniae = experiment: MIC on DMSal agar (Example 15); format: cell-based; details: 2 strains
Protocol: as §1

Listeria innocua = experiment: MIC on DMSal agar (Example 15); format: cell-based; details: 1 strain
Protocol: as §1

Listeria ivanovii = experiment: MIC on DMSal agar (Example 15); format: cell-based; details: 1 strain
Protocol: as §1

Proteus mirabilis = experiment: MIC on DMSal agar (Example 15); format: cell-based; details: 1 strain
Protocol: as §1

Proteus vulgaris = experiment: MIC on DMSal agar (Example 15); format: cell-based; details: 1 strain
Protocol: as §1

Serratia marcescans = experiment: MIC on DMSal agar (Example 15); format: cell-based; details: 1 strain
Protocol: as §1

Shigella = experiment: MIC on DMSal agar (Example 15); format: cell-based; details: 3 strains
Protocol: as §1

Staphylococcus aureus = experiment: MIC on DMSal agar (Example 15); format: cell-based; details: 14 strains
Protocol: as §1

[1] = system: Staphylococcus epidermidis; experiment: MIC on DMSal agar (Example 15); format: cell-based; details: 3 strains
Protocol: as §1

[2] = system: Staphylococcus haemolyticus; experiment: MIC on DMSal agar (Example 15); format: cell-based; details: 1 strain
Protocol: as §1

[3] = system: Staphylococcus saprophyticus; experiment: MIC on DMSal agar (Example 15); format: cell-based; details: 1 strain
Protocol: as §1

Streptoccocus viridans = experiment: MIC on DMSal agar (Example 15); format: cell-based; details: 1 strain
Protocol: as §1

Streptococcus agalactiae = experiment: MIC on DMSal agar (Example 15); format: cell-based; details: 5 strains
Protocol: as §1

Haemophilus influenzae = experiment: MIC on DMSal agar (Example 15); format: cell-based; details: 5 strains
Salmonella = details: 16 strains, DMSal agar
Protocol: (§2) The experiments were conducted as follows: nutrient agar medium was autoclaved and, on cooling (but prior to setting) filter-sterilised alaphosphin or AEP were incorporated at final concentrations of 1 mM, 2 mM, 5 mM and 10 mM, and the medium used to pour plates. Control plates were prepared using nutrient agar without alaphosphin or AEP. A single colony of the organism under test was inoculated in 10 ml of nutrient broth and incubated (without agitation) at 37° C. for 4 hours.

Yersinia enterocolitica = experiment: MIC on DMSal agar (Example 15); format: cell-based; details: 2 strains
Streptococcus pneumonaie = experiment: MIC on DMSal agar (Example 15); format: cell-based; details: 5 strains
E. coli strains = experiment: inhibition of E. coli strains on DMSal agar for selective growth of Salmonella (Example 16); format: cell-based, Escherichia coli; details: added to DMSal, selective growth of Salmonella strains
Protocol: as §2
(§3) Trp-AEP was compared to alaphosphin (Ala-AEP) for selective growth of Salmonella strains on DMSal agar.

[4] = system: Cronobacterr sakazakii 1888; experiment: MIC / growth in DMSal (Example 16); format: cell-based, Cronobacter sakazakii; details: Cronobacterr sakazakii 1888, DMSal
Protocol: as §2, §3

Citrobacter freundii 370 = experiment: MIC / growth in DMSal (Example 16); format: cell-based; details: Citrobacter freundii 370, DMSal
Protocol: as §2, §3

Escherichia coli 122 = experiment: MIC / growth in DMSal (Example 16); format: cell-based; details: Escherichia coli 122, DMSal
Protocol: as §2, §3

Escherichia coli 199 = experiment: MIC / growth in DMSal (Example 16); format: cell-based; details: Escherichia coli 199, DMSal
Protocol: as §2, §3

Escherichia coli 481 = experiment: MIC / growth in DMSal (Example 16); format: cell-based; details: Escherichia coli 481, DMSal
Protocol: as §2, §3

Klebsiella aerogenes 323 = experiment: MIC / growth in DMSal (Example 16); format: cell-based; details: Klebsiella aerogenes 323, DMSal
Protocol: as §2, §3

[5] = system: Klebsiella pneumoniae 411; experiment: MIC / growth in DMSal (Example 16); format: cell-based; details: Klebsiella pneumoniae 411, DMSal
Protocol: as §2, §3

[6] = system: Klebsiella pneumoniae 758; experiment: MIC / growth in DMSal (Example 16); format: cell-based; details: Klebsiella pneumoniae 758, DMSal
Protocol: as §2, §3

Salmonella arizonae 1200 = experiment: MIC / growth in DMSal (Example 16); format: cell-based; details: Salmonella arizonae 1200, DMSal
Protocol: as §2, §3

[7] = system: Salmonella enteriditis 723; experiment: MIC / growth in DMSal (Example 16); format: cell-based; details: Salmonella enteriditis 723, DMSal
Protocol: as §2, §3

[8] = system: Salmonella typhimurium 722; experiment: MIC / growth in DMSal (Example 16); format: cell-based; details: Salmonella typhimurium 722, DMSal
Protocol: as §2, §3

Salmonella virchow 703 = experiment: MIC / growth in DMSal (Example 16); format: cell-based; details: Salmonella virchow 703, DMSal
Protocol: as §2, §3

Serratia marcescens 217 = experiment: MIC / growth in DMSal (Example 16); format: cell-based; details: Serratia marcescens 217, DMSal
Protocol: as §2, §3

## CC(NC(=O)C(N)Cc1c[nH]c2ccccc12)P(=O)(O)O (stereo not shown) [Trp-AEP, tryptophan-AEP]
Burkholderia cepacia
  MIC: >256 µg/mL
Acinetobacter baumanii
  MIC: >256 µg/mL
Aeromonas hydrophilia
  MIC: 128 µg/mL (≈ 411 µM)
Campylobacter coli
  MIC: >128 µg/mL
Campylobacter jejuni
  MIC: >128 µg/mL
Citrobacter freundii
  MIC: approximately 1 μg/ml
Citrobacter freundii; listed as tryptophan-AEP
  MIC: 1 to 4 µg/mL
Cronobacter sakazakii
  MIC: approximately 1 μg/ml
Cronobacter sakazakii; listed as tryptophan-AEP
  MIC: 1 µg/mL (≈ 3.21 µM)
Enterobacter aerogenes
  MIC: 1 µg/mL (≈ 3.21 µM)
Enterobacter cloacae
  MIC: 4 µg/mL (≈ 12.9 µM)
Enterococcus faecium
  MIC: >256 µg/mL
Escherichia coli
  MIC: ≤ 0.5 µg/mL
Escherichia coli; listed as tryptophan-AEP
  MIC: 0.25 to 0.5 µg/mL
Escherichia hermanii
  MIC: 0.5 µg/mL (≈ 1.61 µM)
Group A Streptococcus
  MIC: >256 µg/mL
Group D Streptococcus
  MIC: 16 µg/mL (≈ 51.4 µM)
Group F Streptococcus
  MIC: >256 µg/mL
Hafnia alvei
  MIC: approximately 1 μg/ml
Hafnia alvei; listed as tryptophan-AEP
  MIC: 1 µg/mL (≈ 3.21 µM)
Klebsiella aerogenes
  MIC: 8 µg/mL (≈ 25.7 µM)
Klebsiella pneumoniae
  MIC: 2 to 4 µg/mL
Listeria innocua
  MIC: 32 µg/mL (≈ 103 µM)
Listeria ivanovii
  MIC: >128 µg/mL
Proteus mirabilis
  MIC: >128 µg/mL
Proteus vulgaris
  MIC: >128 µg/mL
Serratia marcescans
  MIC: 2 µg/mL (≈ 6.43 µM)
Shigella
  MIC: ≤ 0.5 µg/mL
Staphylococcus aureus
  MIC: 0.5 to 16 µg/mL
[1]
  MIC: 4 to 16 µg/mL
[2]
  MIC: 2 µg/mL (≈ 6.43 µM)
[3]
  MIC: 64 µg/mL (≈ 206 µM)
Streptoccocus viridans
  MIC: >256 µg/mL
Streptococcus agalactiae
  MIC: 128 µg/mL (≈ 411 µM)
Haemophilus influenzae
  MIC: >128 µg/mL
Salmonella
  MIC: 2 to 16 µg/mL
Yersinia enterocolitica
  MIC: 4 to 8 µg/mL
Streptococcus pneumonaie
  MIC: >256 µg/mL
E. coli strains
  concentration producing equivalent results to Ala-AEP at 1.5 μg/ml: 0.25 µg/mL
[4]
  MIC of Trp-AEP: 0.125 µg/mL
Citrobacter freundii 370
  MIC of Trp-AEP: 2 µg/mL
Escherichia coli 122
  MIC of Trp-AEP: 0.25 µg/mL
Escherichia coli 199
  MIC of Trp-AEP: 0.25 µg/mL
Escherichia coli 481
  MIC of Trp-AEP: 0.064 µg/mL
Klebsiella aerogenes 323
  MIC of Trp-AEP: 3 µg/mL
[5]
  MIC of Trp-AEP: 2 µg/mL
[6]
  MIC of Trp-AEP: 0.064 µg/mL
Salmonella arizonae 1200
  MIC of Trp-AEP: 2 µg/mL
[7]
  MIC of Trp-AEP: 3 µg/mL
[8]
  MIC of Trp-AEP: 3 µg/mL
Salmonella virchow 703
  MIC of Trp-AEP: 3 µg/mL
Serratia marcescens 217
  MIC of Trp-AEP: 3 µg/mL
